Results: US11180462B2, “Microbiocidal oxadiazole derivatives” (SYNGENTA PARTICIPATIONS AG, priority 2015, dated 2021)

How the values were obtained:
[1] = tested on: Puccinia recondita f. Sp. Tritici; assay: Fungicidal activity against Puccinia recondita f. sp. tritici / wheat / leaf disc preventative (brown rust); format: in vivo; conditions: foliar, 200 ppm in the applied formulation, wheat leaf segments, preventative, compared to untreated control leaf disks, read-out: disease control
In short: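 200 ppm spray on wheat cv. Kanzler leaf segments; spore inoculation +1 day; 19° C., 75% rh, 12 h/12 h light cycle; single rating of % control vs untreated at 7 to 9 days.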

[2] = tested on: Glomerella lagenarium (Colletotrichum lagenarium); assay: Fungicidal activity against Glomerella lagenarium (Colletotrichum lagenarium) liquid culture / cucumber / preventative (anthracnose); format: cell-based; conditions: Colletotrichum orbiculare; 20 ppm in the applied formulation; liquid culture (PDB), growth inhibition measured photometrically after 3 to 4 days; compared to untreated control; read-out: disease control
In short: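 Percent activity against the untreated check was derived from photometric growth measurements made 2 to 7 days after conidia in potato dextrose broth were combined with compound at 20 ppm. Cultures were kept dark at 24 °C and 96% humidity.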

[3] = tested on: Puccinia recondita f. Sp. Tritici; assay: Fungicidal activity against Puccinia recondita f. sp. tritici / wheat / leaf disc curative (brown rust); format: in vivo; conditions: foliar, 24 h, 200 ppm in the applied formulation, wheat leaf segments, curative (applied 1 day after inoculation), compared to untreated control leaf disks, read-out: disease control
In short: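 Curative leaf-segment test: compound diluted in water applied 1 day after spore inoculation of cv. Kanzler wheat segments on agar. Conditions 19° C, 75% RH, 12 h/12 h light cycle. Read-out: % disease control relative to untreated check, 6 to 8 days after application.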

CN(Cc1ccc(-c2noc(C(F)(F)F)n2)cc1)C(=O)N1CCCC1 [Compound 3.74, N-methyl-N-[[4-[5-(trifluoromethyl)-1,2,4-oxadiazol-3-yl]phenyl]methyl]-pyrrolidine-1-carboxamide]
≥ 80%: pest or weed control at 200 ppm [1] | inhibition of growth at 20 ppm [2] | pest or weed control at 200 ppm [3]

CCC(C)N(Cc1ccc(-c2noc(C(F)(F)F)n2)cc1)C(=O)C1CCCN1C(C)=O (stereo not drawn) [Compound 1.400, 1-acetyl-N-sec-butyl-N-[[4-[5-(trifluoromethyl)-1,2,4-oxadiazol-3-yl]phenyl]methyl]-pyrrolidine-2-carboxamide]
≥ 80%: pest or weed control at 200 ppm [1] | inhibition of growth at 20 ppm [2] | pest or weed control at 200 ppm [3]

CON(C(=O)C1CCCCO1)C(C)c1ccc(-c2noc(C(F)(F)F)n2)cc1 (stereo not drawn) [Compound 1.249, N-methoxy-N-[1-[4-[5-(trifluoromethyl)-1,2,4-oxadiazol-3-yl]phenyl]ethyl]-tetrahydropyran-2-carboxamide]
≥ 80%: pest or weed control at 200 ppm [1] | inhibition of growth at 20 ppm [2] | pest or weed control at 200 ppm [3]

COCCN(C)C(=O)N(C)Cc1ccc(-c2noc(C(F)(F)F)n2)cc1 [Compound 3.67, 1-(2-methoxyethyl)-1,3-dimethyl-3-[[4-[5-(trifluoromethyl)-1,2,4-oxadiazol-3-yl]phenyl]methyl]urea]
≥ 80%: pest or weed control at 200 ppm [1] | inhibition of growth at 20 ppm [2] | pest or weed control at 200 ppm [3]

O=C(Cc1ccc(Cl)cc1)N(Cc1ccc(-c2noc(C(F)(F)F)n2)cc1)C1CC1 [Compound 1.127, 2-(4-chlorophenyl)-N-cyclopropyl-N-[[4-[5-(trifluoromethyl)-1,2,4-oxadiazol-3-yl]phenyl]methyl]-acetamide]
≥ 80%: pest or weed control at 200 ppm [1] | inhibition of growth at 20 ppm [2] | pest or weed control at 200 ppm [3]

CCC(COC)C(=O)N(Cc1ccc(-c2noc(C(F)(F)F)n2)cc1)CC1CC1 (stereo not drawn) [Compound 1.237, N-(cyclopropylmethyl)-2-(methoxymethyl)-N-[[4-[5-(trifluoromethyl)-1,2,4-oxadiazol-3-yl]phenyl]methyl]-butanamide]
≥ 80%: pest or weed control at 200 ppm [1] | inhibition of growth at 20 ppm [2] | pest or weed control at 200 ppm [3]

CCCN(C)C(=O)N(C)Cc1ccc(-c2noc(C(F)(F)F)n2)cc1 [Compound 3.75, 1,3-dimethyl-1-propyl-3-[[4-[5-(trifluoromethyl)-1,2,4-oxadiazol-3-yl]phenyl]methyl]urea]
≥ 80%: pest or weed control at 200 ppm [1] | inhibition of growth at 20 ppm [2] | pest or weed control at 200 ppm [3]

CCOC(=O)CNC(=O)N(Cc1ccc(-c2noc(C(F)(F)F)n2)cc1)OC [Compound 3.49, ethyl 2-[[methoxy-[[4-[5-(trifluoromethyl)-1,2,4-oxadiazol-3-yl]phenyl]methyl]-carbamoyl]-amino]acetate]
≥ 80%: pest or weed control at 200 ppm [1] | inhibition of growth at 20 ppm [2] | pest or weed control at 200 ppm [3]

CCOC(=O)CN(C)C(=O)N(C)Cc1ccc(-c2noc(C(F)(F)F)n2)cc1 [Compound 3.73, ethyl 2-[methyl-[methyl-[[4-[5-(trifluoromethyl)-1,2,4-oxadiazol-3-yl]phenyl]methyl]-carbamoyl- ]amino]acetate]
≥ 80%: pest or weed control at 200 ppm [1] | inhibition of growth at 20 ppm [2] | pest or weed control at 200 ppm [3]

COCCCC(=O)N(OC)C(C)c1ccc(-c2noc(C(F)(F)F)n2)cc1 (stereo not drawn) [Compound 1.280, N,4-dimethoxy-N-[1-[4-[5-(trifluoro-methyl)-1,2,4-oxadiazol-3-yl]phenyl]ethyl]-butanamide]
≥ 80%: pest or weed control at 200 ppm [1] | inhibition of growth at 20 ppm [2] | pest or weed control at 200 ppm [3]

CON(Cc1ccc(-c2noc(C(F)(F)F)n2)cc1)C(=O)NCC(C)(C)C [Compound 3.10, 3-(2,2-dimethylpropyl)-1-methoxy-1-[[4-[5-(trifluoromethyl)-1,2,4-oxadiazol-3-yl]phenyl]methyl]urea]
≥ 80%: pest or weed control at 200 ppm [1] | inhibition of growth at 20 ppm [2] | pest or weed control at 200 ppm [3]

CON(C(=O)C1OCCO1)C(C)c1ccc(-c2noc(C(F)(F)F)n2)cc1 (stereo not drawn) [Compound 1.276, N-methoxy-N-[1-[4-[5-(trifluoromethyl)-1,2,4-oxadiazol-3-yl]phenyl]ethyl]-1,3-dioxolane-2-carboxamide]
≥ 80%: pest or weed control at 200 ppm [1] | inhibition of growth at 20 ppm [2] | pest or weed control at 200 ppm [3]

C#CCN(Cc1ccc(-c2noc(C(F)(F)F)n2)cc1)C(=O)CCCCC [Compound 1.162, N-prop-2-ynyl-N-[[4-[5-(trifluoromethyl)-1,2,4-oxadiazol-3-yl]phenyl]methyl]-hexanamide]
≥ 80%: pest or weed control at 200 ppm [1] | inhibition of growth at 20 ppm [2] | pest or weed control at 200 ppm [3]

C=CCN(Cc1ccc(-c2noc(C(F)(F)F)n2)cc1)C(=O)CC#N [Compound 1.490, N-allyl-2-cyano-N-[[4-[5-(trifluoromethyl)-1,2,4-oxadiazol-3-yl]phenyl]methyl]-acetamide]
≥ 80%: pest or weed control at 200 ppm [1] | inhibition of growth at 20 ppm [2] | pest or weed control at 200 ppm [3]

COCCN(Cc1ccc(-c2noc(C(F)(F)F)n2)cc1)C(=O)C1=CCCC1 [Compound 1.333, N-(2-methoxyethyl)-N-[[4-[5-(trifluoromethyl)-1,2,4-oxadiazol-3-yl]phenyl]methyl]-cyclopentene-1-carboxamide]
≥ 80%: pest or weed control at 200 ppm [1] | inhibition of growth at 20 ppm [2] | pest or weed control at 200 ppm [3]

COCCN(CCOC)C(=O)N(C)Cc1ccc(-c2noc(C(F)(F)F)n2)cc1 [Compound 3.84, 1,1-bis(2-methoxyethyl)-3-methyl-3-[[4-[5-(trifluoromethyl)-1,2,4-oxadiazol-3-yl]phenyl]methyl]urea]
≥ 80%: pest or weed control at 200 ppm [1] | inhibition of growth at 20 ppm [2] | pest or weed control at 200 ppm [3]

CC(C)(C)C(=O)N(Cc1ccc(-c2noc(C(F)(F)F)n2)cc1)CC1CC1 [Compound 1.225, N-(cyclopropylmethyl)-2,2-dimethyl-N-[[4-[5-(trifluoromethyl)-1,2,4-oxadiazol-3-yl]phenyl]methyl]-propanamide]
≥ 80%: pest or weed control at 200 ppm [1] | inhibition of growth at 20 ppm [2] | pest or weed control at 200 ppm [3]

CCN(Cc1ccc(-c2noc(C(F)(F)F)n2)cc1)C(=O)N(C)C1(COC)CC1 [Compound 3.95, 1-ethyl-3-[1-(methoxymethyl)-cyclopropyl]-3-methyl-1-[[4-[5-(trifluoromethyl)-1,2,4-oxadiazol-3-yl]phenyl]methyl]urea]
≥ 80%: pest or weed control at 200 ppm [1] | inhibition of growth at 20 ppm [2] | pest or weed control at 200 ppm [3]

CN(Cc1ccc(-c2noc(C(F)(F)F)n2)cc1)C(=O)CCl [Compound 1.522, 2-chloro-N-methyl-N-[[4-[5-(trifluoromethyl)-1,2,4-oxadiazol-3-yl]phenyl]methyl]-acetamide]
≥ 80%: pest or weed control at 200 ppm [1] | inhibition of growth at 20 ppm [2] | pest or weed control at 200 ppm [3]

C#CC(=O)N(Cc1ccc(-c2noc(C(F)(F)F)n2)cc1)C(C)CC (stereo not drawn) [Compound 1.391, N-sec-butyl-N-[[4-[5-(trifluoromethyl)-1,2,4-oxadiazol-3-yl]phenyl]methyl]-prop-2-ynamide]
≥ 80%: pest or weed control at 200 ppm [1] | inhibition of growth at 20 ppm [2] | pest or weed control at 200 ppm [3]

CCN(Cc1ccc(-c2noc(C(F)(F)F)n2)cc1)C(=O)N(C)CC#N [Compound 3.88, 1-(cyanomethyl)-3-ethyl-1-methyl-3-[[4-[5-(trifluoromethyl)-1,2,4-oxadiazol-3-yl]phenyl]methyl]urea]
≥ 80%: pest or weed control at 200 ppm [1] | inhibition of growth at 20 ppm [2] | pest or weed control at 200 ppm [3]

COCCOCC(=O)N(CCOC)Cc1ccc(-c2noc(C(F)(F)F)n2)cc1 [Compound 1.340, 2-(2-methoxyethoxy)-N-(2-methoxyethyl)-N-[[4-[5-(trifluoromethyl)-1,2,4-oxadiazol-3-yl]phenyl]methyl]-acetamide]
≥ 80%: pest or weed control at 200 ppm [1] | inhibition of growth at 20 ppm [2] | pest or weed control at 200 ppm [3]

CON(Cc1ccc(-c2noc(C(F)(F)F)n2)cc1)C(=O)C(C)NC(C)=O (stereo not drawn) [Compound 1.795, 2-acetamido-N-methoxy-N-[[4-[5-(trifluoromethyl)-1,2,4-oxadiazol-3-yl]phenyl]methyl]-propanamide]
≥ 80%: pest or weed control at 200 ppm [1] | inhibition of growth at 20 ppm [2] | pest or weed control at 200 ppm [3]
